Assay: Safety: adverse events (NCI-CTCAE v4.0), DLT, MTD, RP2D
Format: in vivo
Procedure: AEs were assessed using the National Cancer Institute-Common Terminology Criteria for Adverse Events (NCI-CTCAE v4.0). […] The protocol-defined GDC-0810-specific AEs of special interest (AESI) which were non-serious adverse events that required expedited reporting to the sponsor, included DLTs occurring during the DLT assessment window, grade ≥ 2 vomiting/diarrhea, grade ≥ 3 nausea, grade ≥ 2 thromboembolic events, grade ≥ 2 vaginal or uterine hemorrhage, and grade ≥ 3 elevation of ALT or AST.
Analyses of safety, pharmacokinetics, anti-tumor activity, and data from the FES-PET imaging correlative studies were planned. Confirmatory inferential analyses and imputation for missing data were not planned due to the exploratory nature of this study. Descriptive statistics were used to summarize patient data. The number of patients to be enrolled was dependent upon the observed safety and pharmacokinetic profile during dose escalations. The safety- and efficacy-evaluable population included patients who received at least one dose of the study drug. Safety was assessed through summaries of DLTs, AEs, changes in select laboratory test results, vital signs, ECGs, and changes in endometrial thickness. Objective response (with confirmation) and clinical benefit rates (CBR) were derived per RECIST v1.1 and summarized by dose level and cohort. […]
polyps, endometrial cancer, endometrial hyperplasia, and other significant disorders); any […]
disease or chronic diarrhea, short bowel syndrome, or upper gastrointestinal surgery; known human immunodeficiency virus (HIV) infection; known clinically significant history of liver disease; major surgery within 4 weeks prior to enrollment; or radiation therapy within 2 weeks […]
There were phase-specific exclusion criteria as well. In phase Ib, cohort C1 excluded patients with a history of venous thromboembolic event requiring therapeutic anticoagulation or vaginal bleeding within 2 months prior to enrollment. In phase IIa, cohorts A1 and A2 excluded patients with >1 chemotherapy in the advanced/metastatic disease setting. In phase IIa, cohort B1 excluded patients with >1 prior AI in the advanced/metastatic disease setting or prior […]
In phase IIa, cohort B2 excluded patients with >1 prior AI or >1 prior chemotherapy in the advanced/metastatic disease setting.
Patients in phase Ia in dose escalation received oral doses of GDC-0810 during 28-day cycles given once daily (QD) or twice-daily (BID), with fasting and without fasting, and with a single dose given on day −7 leading into cycle 1. The starting dose in the first cohort was 100 mg per day based on preclinical studies. Dose escalation to 200 mg and by 200 mg increments in successive cohorts occurred in the absence of dose-limiting toxicities (DLTs), or conditionally in the presence of DLTs. A DLT was defined as any adverse event (AE) occurring during the DLT window deemed by the investigator or sponsor to be related to the study drug unless they were clearly related to disease progression or other cause; DLT incidences were evaluated from day […]
patients in a dose cohort experienced a DLT, 3 additional patients were assigned to that dose; dose escalation to the next level proceeded if DLTs were experienced by ≤1 patient out of 6. If ≥2 patients experienced DLTs at a given dose, a lower dose was to be declared the maximum […]
Phase Ib was a dose-escalation study of GDC-0810 starting at 400 mg QD, as […]
Phase IIa explored the recommended phase 2 dose (RP2D) from phase Ia. All patients received GDC-0810 600 mg under non-fasting conditions. Cohorts A1 and A2 enrolled patients with tumors harboring ESR1 mutations with no prior fulvestrant use in cohort A1 while prior fulvestrant use was allowed in cohort A2. Cohorts B1 and B2 enrolled patients whose disease had progressed and who may have had one or no AI therapy; there was no prior fulvestrant use in cohort B1 while prior fulvestrant use was allowed in cohort B2.
Patients in all three study phases continued treatment until unacceptable toxicity, disease

[1] = phase IIa B2, 600 mg QD, n = 19
[2] = phase Ia cohorts 1–9, 100–800-mg BID, 300–400-mg QD, n = 41
[3] = phase Ib C1, 400 mg QD + palbociclib, n = 4
[4] = phase Ib D1, ≤ 600 mg QD + LHRH agonist, n = 6
[5] = phase Ib and IIa (n=111), grade 2, cohort B1
[6] = phase Ib and IIa (n=111), grade 2, cohort D1
[7] = phase Ib and IIa (n=111), grade 3, cohort A1
[8] = phase Ib and IIa (n=111), grade 3, cohort B1
[9] = phase Ib and IIa (n=111), grade 5, cohort B1
[10] = phase Ib combination treatments

CC/C(=C(/c1ccc(/C=C/C(=O)O)cc1)c1ccc2[nH]ncc2c1)c1ccc(F)cc1Cl [GDC-0810]
Constipation, Grades 3–5 [1]: 0 n (%) | Constipation, all grades [1]: 4 (21) n (%) | Cough, Grades 3–5 [1]: 0 n (%) | Cough, all grades [1]: 4 (21) n (%) | Decreased appetite, Grades 3–5 [1]: 0 n (%) | Decreased appetite, all grades [1]: 2 (11) n (%) | Diarrhea, Grades 3–5 [1]: 0 n (%) | Diarrhea, all grades [1]: 11 (58) n (%) | Dyspepsia, Grades 3–5 [1]: 0 n (%) | Dyspepsia, all grades [1]: 2 (11) n (%) | Fatigue, Grades 3–5 [1]: 0 n (%) | Fatigue, all grades [1]: 7 (37) n (%) | Flatulence, Grades 3–5 [1]: 0 n (%) | Flatulence, all grades [1]: 0 n (%) | Nausea, Grades 3–5 [1]: 0 n (%) | Nausea, all grades [1]: 9 (47) n (%) | Vomiting, Grades 3–5 [1]: 0 n (%) | Vomiting, all grades [1]: 2 (11) n (%) | AEs leading to dose interruption (phase IIa expansion cohorts): 32 (32%) n (%) | AEs leading to dose reduction (phase IIa expansion cohorts): 4 (4%) n (%) | AEs leading to study drug withdrawal (phase IIa expansion cohorts): 3 (3%) n (%) | MTD (maximum tolerated dose) (phase Ia): not reached | time to onset for any grade diarrhea, range (phase Ia): 1 to 176 days | AST increased, Grades 3–5 [2]: 2 (5) n (%) | AST increased, all grades [2]: 17 (42) n (%) | Abdominal pain, Grades 3–5 [2]: 1 (2) n (%) | Abdominal pain, all grades [2]: 12 (29) n (%) | Anemia, Grades 3–5 [2]: 1 (2) n (%) | Anemia, all grades [2]: 18 (44) n (%) | Arthralgia, Grades 3–5 [2]: 0 n (%) | Arthralgia, all grades [2]: 12 (29) n (%) | Constipation, Grades 3–5 [2]: 0 n (%) | Constipation, all grades [2]: 17 (42) n (%) | Cough, Grades 3–5 [2]: 0 n (%) | Cough, all grades [2]: 13 (32) n (%) | Decreased appetite, Grades 3–5 [2]: 0 n (%) | Decreased appetite, all grades [2]: 13 (32) n (%) | Diarrhea, Grades 3–5 [2]: 0 n (%) | Diarrhea, all grades [2]: 32 (78) n (%) | Dyspepsia, Grades 3–5 [2]: 0 n (%) | Dyspepsia, all grades [2]: 11 (27) n (%) | Fatigue, Grades 3–5 [2]: 3 (7) n (%) | Fatigue, all grades [2]: 28 (68) n (%) | Flatulence, Grades 3–5 [2]: 0 n (%) | Flatulence, all grades [2]: 11 (27) n (%) | Nausea, Grades 3–5 [2]: 1 (2) n (%) | Nausea, all grades [2]: 28 (68) n (%) | Vomiting, Grades 3–5 [2]: 1 (2) n (%) | Vomiting, all grades [2]: 16 (39) n (%) | AEs leading to dose interruption (phase Ia dose escalation): 18 (44%) n (%) | AEs leading to dose reduction (phase Ia dose escalation): 5 (12%) n (%) | patients with ≥ 1 AE considered related to GDC-0810 (phase Ia dose escalation): 40 (98%) n (%) | mean time to onset for any grade diarrhea (phase Ia dose-escalation cohorts): 29 days | SAEs considered related to the study drug (phase Ia, grade 4 pulmonary embolism): one of the 20 | patients with grade ≥3 AEs related to GDC-0810 (phase Ia, grade 4 pulmonary embolism and two grade 3 diarrhea): 3 (7%) n (%) | deaths (phase Ib): no deaths | AST increased, Grades 3–5 [3]: 0 n (%) | AST increased, all grades [3]: 1 (25) n (%) | Abdominal pain, Grades 3–5 [3]: 0 n (%) | Abdominal pain, all grades [3]: 0 n (%) | Anemia, Grades 3–5 [3]: 0 n (%) | Anemia, all grades [3]: 2 (50) n (%) | Arthralgia, Grades 3–5 [3]: 0 n (%) | Arthralgia, all grades [3]: 1 (25) n (%) | Constipation, Grades 3–5 [3]: 0 n (%) | Constipation, all grades [3]: 0 n (%) | Cough, Grades 3–5 [3]: 0 n (%) | Cough, all grades [3]: 1 (25) n (%) | Decreased appetite, Grades 3–5 [3]: 0 n (%) | Decreased appetite, all grades [3]: 1 (25) n (%) | Diarrhea, Grades 3–5 [3]: 0 n (%) | Diarrhea, all grades [3]: 2 (50) n (%) | Dyspepsia, Grades 3–5 [3]: 0 n (%) | Dyspepsia, all grades [3]: 0 n (%) | Fatigue, Grades 3–5 [3]: 1 (25) n (%) | Fatigue, all grades [3]: 2 (50) n (%) | Flatulence, Grades 3–5 [3]: 0 n (%) | Flatulence, all grades [3]: 0 n (%) | Nausea, Grades 3–5 [3]: 0 n (%) | Nausea, all grades [3]: 3 (75) n (%) | Vomiting, Grades 3–5 [3]: 0 n (%) | Vomiting, all grades [3]: 0 n (%) | AST increased, Grades 3–5 [4]: 0 n (%) | AST increased, all grades [4]: 0 n (%) | Abdominal pain, Grades 3–5 [4]: 0 n (%) | Abdominal pain, all grades [4]: 2 (33) n (%) | Anemia, Grades 3–5 [4]: 0 n (%) | Anemia, all grades [4]: 0 n (%) | Arthralgia, Grades 3–5 [4]: 0 n (%) | Arthralgia, all grades [4]: 1 (17) n (%) | Constipation, Grades 3–5 [4]: 0 n (%) | Constipation, all grades [4]: 3 (50) n (%) | Cough, Grades 3–5 [4]: 0 n (%) | Cough, all grades [4]: 1 (17) n (%) | Decreased appetite, Grades 3–5 [4]: 0 n (%) | Decreased appetite, all grades [4]: 4 (67) n (%) | Diarrhea, Grades 3–5 [4]: 1 (17) n (%) | Diarrhea, all grades [4]: 6 (100) n (%) | Dyspepsia, Grades 3–5 [4]: 0 n (%) | Dyspepsia, all grades [4]: 3 (50) n (%) | Fatigue, Grades 3–5 [4]: 0 n (%) | Fatigue, all grades [4]: 3 (50) n (%) | Flatulence, Grades 3–5 [4]: 0 n (%) | Flatulence, all grades [4]: 1 (17) n (%) | Nausea, Grades 3–5 [4]: 0 n (%) | Nausea, all grades [4]: 4 (67) n (%) | Vomiting, Grades 3–5 [4]: 0 n (%) | Vomiting, all grades [4]: 3 (50) n (%) | SAE Urinary tract infection (phase Ib and IIa (n=111), grade 1, cohort A1): 1 n | SAE Hepatic hemorrhage (phase Ib and IIa (n=111), grade 2, cohort A1): 1 n | SAE Deep vein thrombosis [5]: 1 n | SAE Pneumonia [5]: 1 n | SAE Pleural effusion (phase Ib and IIa (n=111), grade 2, cohort C1): 1 n | SAE Abdominal pain [6]: 1 n | SAE Appendicitis perforated [6]: 1 n | SAE Pain in extremity [6]: 1 n | SAE Ascites [7]: 1 n | SAE Hypertension [7]: 1 n | SAE Vomiting (phase Ib and IIa (n=111), grade 3, cohort A1 (both)): 2 n | SAE Cardiac failure [8]: 1 n | SAE Diarrhea [8]: 1 n | SAE Dyspnea [8]: 1 n | SAE Endometrial hyperplasia [8]: 1 n | SAE Headache [8]: 1 n | SAE Hip fracture [8]: 1 n | SAE Hydronephrosis [8]: 1 n | SAE Seizure [8]: 1 n | SAE Syncope [8]: 1 n | SAE Tumor pain [8]: 1 n | SAE Atrial fibrillation (phase Ib and IIa (n=111), grade 3, cohort C1): 1 n | SAE Pneumonia (phase Ib and IIa (n=111), grade 3, cohorts A2, B1): 2 n | SAE Pulmonary embolism (phase Ib and IIa (n=111), grade 3, cohorts B1, D1): 2 n | SAE Hyponatremia (phase Ib and IIa (n=111), grade 4, cohort B1): 1 n | SAE Sepsis (phase Ib and IIa (n=111), grade 4, cohorts B1, B2): 2 n | SAE Acute kidney injury [9]: 1 n | SAE Breast cancer [9]: 2 n | AEs leading to dose interruption [10]: 5 (50%) n (%) | AEs leading to dose reduction [10]: none | AEs leading to study drug withdrawal [10]: none | vomiting, most common AEs (phases Ib/IIa): 31,28% | RP2D (recommended phase 2 dose) (taken with food / non-fasted): 600 mg QD

Reference: paper PMC9823088, “The oral selective estrogen receptor degrader GDC-0810 (ARN-810) in postmenopausal women with hormone receptor-positive HER2-negative (HR + /HER2 −) advanced/metastatic breast cancer” (Breast Cancer Research and Treatment, 2022)
